Data published in patent US9598426B2, “Organic compounds” (INTRA-CELLULAR THERAPIES, INC., priority 2013, dated 2017).

Assays:
C57BL/6 mice = assay: Haloperidol induced catalepsy model (bar grip test, step down latency); assay type: in vivo, mouse; details: haloperidol 3 mg/Kg PO, male C57BL/6 mice, compound PO
Excerpt: Haloperidol Induced Catalepsy Model
To evaluate the potential beneficial effects to motor defects present in schizophrenics treated with typical and atypical antipsychotic agents and in Parkinson's disease patients, the compounds of the invention may be tested in a reversal of catalepsy model in which motor freezing, or catalepsy, is induced by potent dopamine D2 receptor antagonists such as haloperidol or risperidone. The method uses the “bar grip test”, in which the front paws of the mouse are placed so as to grip a 3 mm-diameter, suspended wooden bar. A “step down latency” is measured by recording the time until the mouse removes its paws from the wooden bar to the floor surface. Catalepsy is a freezing of the musculature that prevents the mouse from moving off the bar. […]
A catalepsy score is recorded for each mouse at 2, 3, 4, and 6 hours after administration of drugs. […] The latency until the mouse steps both paws down from the bar to the floor surface (i.e., step down latency) is recorded up to 120 sec. […] If none of the 10 attempts are beyond 10 sec, the longest duration recorded is used as the catalepsy score. Otherwise, the initial cataleptic duration (>10 sec) is recorded during the 120 sec testing time. Mean step down latency is calculated for each treatment group.

rats = assay: Novel Object Recognition (NOR) assay; assay type: in vivo; details: PO, administered to a rat 2 hours before T1 (acquisition); 24 h interval
Excerpt: Novel Object Recognition Assay
To measure the cognition-enhancing effects of the compounds of the invention, the candidate compounds may be evaluated in a Novel Object Recognition (NOR) assay. This assay protocol is described in detail in Ennaceur et al., Behav. Brain Res. (1988) 31:47-59 and Prickaerts et al., Eur. J. Pharmacol. (1997) 337:125-136, the contents of each of which are incorporated by reference in their entirety. In this protocol, the rats are introduced to a chamber at time T1 and allowed to interrogate two identical “familiar objects” for six minutes. Twenty-four hours later, they are re-introduced to this chamber, where one of the familiar objects has been replaced with a novel object. The “discrimination index”, a measure of the time spent in close proximity to the novel over the familiar object, may then be measured. Since rodents will forget the original experiment at T1 within 4 hours, this test with a 24 h interval is a measure of strong cognitive enhancement.
This assay protocol can be modified in order to evaluate different phases of memory. There are three general phases of memory, namely, acquisition, consolidation and retrieval. In this modified protocol, the rats may be dosed with the candidate compound two hours before T1 and tested 24 h later without additional dosing. This is a test of the acquisition process. […]

What does the source list for CC(=O)c1ccc(Cn2nc3c(c2Nc2ccc(F)cc2)C(=O)N(C)C2=NC(C)(C)CN23)cc1 [Example 1, 7,8-Dihydro-2-(4-acetylbenzyl)-3-(4-fluorophenylamino)-5,7,7-trimethyl-[2H]-imidazo-[1,2-a]pyrazolo[4,3-e]pyrimidin-4(5H)-one]?
minimal effective dose (C57BL/6 mice): 0.1 mg/kg; minimal effective dose (rats): 0.1 mg/kg
